# Measurements taken from paper PMC6383986, “Fragment-Based Covalent Ligand Screening Enables Rapid Discovery of Inhibitors for the RBR E3 Ubiquitin Ligase HOIP” (Journal of the American Chemical Society, 2019).
# Entries after “also recorded” stand apart in the source; their conditions may differ.
# Assays:
# [1] = test system: HEK293T cells overexpressing full-length HOIP, HOIL-1L, and SHARPIN; test: CellTiter-Glo Luminescent cell viability assay, transfected cells; format: cell-based; conditions: 17 h
# Protocol: Thurston, Imperial College London. 2.3 × 10^6 cells were seeded into 100 mm Petri dishes in DMEM media supplemented with 10% v/v FBS (Biosera) and 1% v/v L-glutamine/penicillin/streptomycin (Sigma-Aldrich) and incubated at 37 °C overnight. The following morning the cells were transfected using either 6 µg pcDNA3 or 4.5 µg HOIP, 0.3 µg HOIL-1L and 1.2 µg SHARPIN as well as 450 ng pRDII Luc and 180 ng pRLTK (Promega) plasmids. 7 h after transfection, the cells were trypsinized and re-suspended in DMEM media supplemented with 1% v/v FBS (Biosera) and 1% v/v L-glutamine/penicillin/streptomycin (Sigma-Aldrich). […]
# (§1) Reporter assays: After incubating the plates for 17 h, Firefly and Renilla Luciferase activity was analyzed using the Dual-Luciferase® Reporter Assay System (Promega) and a BertholdTech […]
# (§2) with Mikrowin 2000 software version 4.41: using its injectors to inject 100 µL LAR II and 100 µL Stop&Glo (see manufacturer’s instructions; Promega #E1960). NF-κB regulated luciferase activity was first normalized to Renilla luciferase activity and then the fold activation relative to cells transfected with empty vector calculated. […]
# Cell viability assays: After incubating the plates for 17 h in the presence of compound, cell viability was determined using the CellTiter-Glo® Luminescent Cell Viability Assay according to manufacturer’s instructions (Promega #G7571). […]
# [2] = test system: NF-κB activation in HEK293T cells overexpressing full length HOIP, HOIL-1L, and SHARPIN; test: NF-κB Luciferase reporter assay; format: cell-based; conditions: overnight (17 h) treatment
# Protocol: suspensions were agitated at 4 °C overnight. The supernatants were removed and kept on ice, and the beads were washed with wash buffer (2 × 0.5 mL), PBS (2 × 0.5 mL), and 50 mM HEPES, 150 mM NaCl, pH 7.5 buffer (2 × 0.5 mL).
# A polyubiquitination assay master mix was prepared by mixing E1, UbcH7, ubiquitin, MgCl2, in buffer (50 mM HEPES, 150 mM NaCl, pH 7.5). The solution (30 µL per sample) was added to the beads, and lastly ATP (0.6 µL of 100 mM stock) was added to initiate the reaction. Final concentrations were E1 (0.2 µM), UbcH7 E2 (1 µM), ubiquitin (10 µM), MgCl2 (4 mM), ATP (2 mM). The vials were incubated (Eppendorf Thermomixer) at 25 °C, 900 rpm for 1.5 h. […] All samples were analyzed by SDS PAGE and Western Blot (Figure 6C and Supplementary Figure S13) as described in sections 4.5 and 4.6. […]
# as §1, §2
# reader. […]
# HOIP RBR domain [3] = target: T1, HOIP RBR domain (Homo sapiens, UniProt Q96EP0); test: Protein LC-MS compound screening of analogs; format: binding; conditions: 2 μM protein, 0.5, 4, 24 h; for labeling of HOIP RBR domain relative to hit (5): 20 μM compound (10-fold excess)
# T1 construct: made in house; host or cells: E. coli BL21-GOLD(DE3)
# T1 sequence (Q96EP0 697-1072): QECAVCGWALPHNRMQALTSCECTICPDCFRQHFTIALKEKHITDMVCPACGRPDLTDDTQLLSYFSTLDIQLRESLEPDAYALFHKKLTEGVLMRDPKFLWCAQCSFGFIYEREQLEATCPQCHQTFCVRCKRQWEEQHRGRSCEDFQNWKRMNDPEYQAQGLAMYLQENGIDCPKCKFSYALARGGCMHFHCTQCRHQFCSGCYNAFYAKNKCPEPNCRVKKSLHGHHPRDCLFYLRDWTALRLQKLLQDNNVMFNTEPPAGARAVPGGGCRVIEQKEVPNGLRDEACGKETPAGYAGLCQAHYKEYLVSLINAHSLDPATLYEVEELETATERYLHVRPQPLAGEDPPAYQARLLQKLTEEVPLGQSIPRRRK
# Protocol: of (1) and 3 mM stock solution of (5) in DMSO, giving a final concentration of 6 and 30 µM respectively, and 1% DMSO).
# The UbcH5c and UbcH7 E2 enzymes were diluted with buffer to afford new stock solutions at 10 µM, of which 25 µL was used for each sample (final concentration 5 µM, 85-91 µg/mL), together with 24.5 µL buffer and 0.5 µL compound solution (1 mM stock solution of (1) and 5 mM stock solution of (5) in DMSO, giving a final concentration of 10 and 50 µM respectively, and 1% DMSO).
# The E1 enzyme was diluted with buffer to afford a new stock solution at 2 µM, of which 25 µL was used for each sample (final concentration 1 µM, 120 µg/mL), together with 24.5 µL buffer and 0.5 µL compound solution (200 µM stock solution of (1) and 1 mM stock solution of (5) in DMSO, giving a final concentration of 2 and 10 µM respectively, and 1% DMSO).
# Protocol as described above, using the HOIP RBR (stock solutions around 300 µM) in buffer (50 mM HEPES, 150 mM NaCl, pH 7.5) to afford a new stock solution at 4 µM of which 25 µL was used for each sample (final concentration 2 µM, 87 µg/mL), together with 24.5 µL buffer and 0.5 µL compound solution (2 mM stock solutions in DMSO, giving a final concentration of 20 µM, and 1% DMSO). The samples were analyzed after 0.5, 4, and 24 h incubation.
# Supplementary Figure S7. TIC traces of deconvoluted protein masses from the screening of analogues to hit compound (5). The HOIP RBR (2 µM; MW = 43398 g/mol) was incubated with […]
# compound (17) and aliquots were analyzed after 0.5, 4, and 24 h incubation. The data was used for the generation of the heat map in Figure 5A.
# (1 picture or pasted object on this page, not shown here)
# HOIP RBR domain [4] = target: T1, HOIP RBR domain; test: In vitro polyubiquitination assay; format: biochemical; conditions: HOIP RBR preincubated with compound (200 μM) overnight; E2 UbcH7 or UbcH5c; vs DMSO
# Protocol: 4.3 Polyubiquitination assay
# The ubiquitination assay was essentially carried out as previously described.12 The HOIP RBR domain was pre-incubated with compounds (5) or (6), or DMSO in 50 mM HEPES, 150 mM NaCl, pH 7.5 buffer at 23 °C with gentle shaking for overnight (20-24 h). E1, E2 (UbcH7 or UbcH5c), ubiquitin, and MgCl2 were added to each vial, and aliquots of 15 µL were withdrawn to mark time zero. ATP was then added and aliquots of 15 µL were withdrawn after 5, 15, 30, and 60 min incubation. Final concentrations: E1 (1 µM), E2 (5 µM), E3 (5 µM), compounds (200 µM), DMSO (1%), ubiquitin (40 µM), MgCl2 (20 mM), ATP (10 mM); reaction volume 100 µL. The aliquots were analyzed by SDS PAGE (Figure 4A and Supplementary Figure S9) as described below (section
labeling of HOIP RBR domain relative to hit (5) (HOIP RBR domain [3]),Compound,other results
,COC(=O)CCCNC(=O)c1cc2c([nH]c1=O)CCCC2 [Compound 17],effect on cell viability [1]: neither compound had any effect on cell viability; effect on NF-κB activity [2]: no effect on NF-κB activity; labeling of HOIP RBR domain (HOIP RBR domain [3]; 200 μM compound): abolished activity
inactive,COC(=O)/C=C/CNC(=O)c1ccc(-c2ccccc2)[nH]c1=O [Compound 11i],
abolished activity,COC(=O)CCCNC(=O)c1cc2c([nH]c1=O)CCC2 [Compound 6],polyubiquitin chain formation (HOIP RBR domain [4]): no inhibitory effect; also recorded: no effect on catalytic activity
significantly lower activity,COC(=O)/C=C/CCNC(=O)c1cc2c([nH]c1=O)CCC2 [Compound 9],
significantly lower activity,COC(=O)/C=C/CNC(C)=O [Compound 10],
